# Source: ChEMBL document CHEMBL1201862, “PubChem BioAssay data set” (2004)
# Active and inactive are the calls of the source.
# What was measured:
# [1] = target: Heat shock protein HSP 90-alpha (Homo sapiens, UniProt P07900); format: functional, organism-based
# [2] = target: T1, Short transient receptor potential channel 4 (Mus musculus, UniProt Q9QUQ5); experiment: calcium entry via TRPC4 opening agents – cell-based, HEK293 TRPC4/mu-opioid, Fluo-4 calcium, dose response (AID 434937); format: functional
# T1 sequence (Q9QUQ5 whole entry): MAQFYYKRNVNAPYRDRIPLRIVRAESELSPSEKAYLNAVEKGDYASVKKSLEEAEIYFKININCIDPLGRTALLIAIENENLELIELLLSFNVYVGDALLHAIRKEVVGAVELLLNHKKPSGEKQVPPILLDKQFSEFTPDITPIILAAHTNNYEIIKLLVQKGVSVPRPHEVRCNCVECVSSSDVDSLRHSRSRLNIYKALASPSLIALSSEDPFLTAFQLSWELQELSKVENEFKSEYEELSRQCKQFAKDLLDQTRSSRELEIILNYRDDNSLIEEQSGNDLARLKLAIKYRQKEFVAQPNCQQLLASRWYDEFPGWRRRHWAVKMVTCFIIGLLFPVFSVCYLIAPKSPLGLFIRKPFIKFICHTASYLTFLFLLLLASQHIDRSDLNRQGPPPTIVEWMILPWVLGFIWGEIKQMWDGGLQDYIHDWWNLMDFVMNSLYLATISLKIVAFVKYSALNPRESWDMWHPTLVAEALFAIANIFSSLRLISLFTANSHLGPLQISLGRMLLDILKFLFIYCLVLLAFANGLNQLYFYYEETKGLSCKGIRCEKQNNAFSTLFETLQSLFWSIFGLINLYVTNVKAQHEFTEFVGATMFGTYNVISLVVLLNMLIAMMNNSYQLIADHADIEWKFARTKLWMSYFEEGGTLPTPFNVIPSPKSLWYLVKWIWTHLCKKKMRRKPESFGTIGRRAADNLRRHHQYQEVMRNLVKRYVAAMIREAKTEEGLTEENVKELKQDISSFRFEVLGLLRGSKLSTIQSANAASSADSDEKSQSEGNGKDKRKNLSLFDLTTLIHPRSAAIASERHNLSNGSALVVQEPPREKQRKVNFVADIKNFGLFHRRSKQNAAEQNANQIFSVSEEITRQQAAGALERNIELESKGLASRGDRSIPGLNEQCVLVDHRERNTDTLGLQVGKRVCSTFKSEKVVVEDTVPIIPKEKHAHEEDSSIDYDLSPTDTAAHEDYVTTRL
# [3] = target: T2, Carboxy-terminal domain RNA polymerase II polypeptide A small phosphatase 1 (Homo sapiens, UniProt Q9GZU7); experiment: CTDSP1 inhibitors, concentration-response, biochemical, absorbance readout, ultra-high-throughput screen actives (AID 540297); format: functional
# T2 sequence (Q9GZU7 whole entry): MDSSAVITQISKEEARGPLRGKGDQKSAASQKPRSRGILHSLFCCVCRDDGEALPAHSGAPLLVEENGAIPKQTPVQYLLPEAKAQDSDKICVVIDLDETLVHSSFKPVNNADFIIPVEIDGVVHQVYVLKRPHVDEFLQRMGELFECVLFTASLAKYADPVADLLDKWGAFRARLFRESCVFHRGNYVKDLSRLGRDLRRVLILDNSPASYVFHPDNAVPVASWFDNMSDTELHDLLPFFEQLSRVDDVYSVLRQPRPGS
# [4] = target: T3, Cytochrome P450 1A2 (Homo sapiens, UniProt P05177);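 also: PubChem cytochrome P450 panel assay, CYP1A2 panel member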
# T3 sequence (P05177 whole entry): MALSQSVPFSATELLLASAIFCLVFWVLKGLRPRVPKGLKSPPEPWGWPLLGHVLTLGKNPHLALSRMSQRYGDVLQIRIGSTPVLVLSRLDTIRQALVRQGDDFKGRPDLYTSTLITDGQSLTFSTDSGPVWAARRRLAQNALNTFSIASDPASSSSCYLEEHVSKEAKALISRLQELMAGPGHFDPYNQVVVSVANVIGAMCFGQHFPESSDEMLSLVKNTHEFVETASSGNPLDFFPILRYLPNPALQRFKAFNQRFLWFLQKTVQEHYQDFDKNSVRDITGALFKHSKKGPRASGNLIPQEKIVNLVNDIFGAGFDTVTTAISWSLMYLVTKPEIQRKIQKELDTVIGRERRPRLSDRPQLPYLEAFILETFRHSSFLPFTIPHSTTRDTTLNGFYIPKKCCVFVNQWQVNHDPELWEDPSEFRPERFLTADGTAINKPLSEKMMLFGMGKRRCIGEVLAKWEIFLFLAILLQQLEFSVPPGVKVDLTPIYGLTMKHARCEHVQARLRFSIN
# [5] = target: Cytochrome P450 3A4 (Homo sapiens, UniProt P08684);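 also: CYP3A4 tested as one member of a cytochrome P450 panel screen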
# [6] = Trypanosoma cruzi growth suppression in host cells – NIH3T3 host cells, beta-gal luminescence, confirmation (AID 2044); format: functional, cell-based;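 also: intracellular parasites grown in NIH/3T3 mouse fibroblasts as host cells; luminescent beta-galactosidase reporter signal from transgenic T. cruzi replicating inside host cells; inhibitors lower the luminescence signal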
# [7] = NIH3T3 cell viability loss – ATP luminescence, mouse fibroblasts, counter-screen, dose response (AID 2010); format: functional, cell-based;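 also: cells exposed to compound for about 90 hours before reading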
# [8] = alpha-synuclein stem-loop luciferase translation blockers – H4 neuroglioma cells, luminescence, confirmation (AID 1988); format: functional, cell-based
# [9] = cells; format: functional
# [10] = luciferase reporter signal suppression in cells – H4 neuroglioma cells, luminescence, dose response (AID 1990); format: functional, cell-based
# [11] = Luminescence Cell-Based Dose Response HTS to Identify Inhibitors of 5'UTR Stem-Loop Driven Prion Protein mRNA Translation in H4 Neuroglioblastoma Cells. [Related pubchem assays: 1827 (Project Summary), 1813 (Primary HTS)]; format: functional
# [12] = Vero E6 cell cytotoxicity, dose response, cytotoxicity control for non-replicating M. tuberculosis project, secondary assay (AID 492998); format: functional, VeroE6; settings: Vero C1008
# [13] = target: Dual specificity tyrosine-phosphorylation-regulated kinase 1A (Rattus norvegicus, UniProt Q63470); format: biochemical, Homo sapiens
# [14] = tested on: HEK293; experiment: EBV LMP1 TES2 canonical NF-kB signalling blockers – cell-based, HEK293, luciferase, cherry-pick, dose response (AID 588343); format: functional; settings: Homo sapiens
# [15] = A cytotoxicity screen of small molecule inhibitors of the PhoP region in Salmonella typhi identified in the primary screen. [Related pubchem assays: 1850, 1864, 1985 ]; format: functional
# [16] = target: T1, Short transient receptor potential channel 4; experiment: block of DAMGO-driven TRPC4 calcium entry – cell-based, HEK293 TRPC4/mu-opioid, Fluo-4 calcium, dose response (AID 434942); format: functional;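 also: potency of inhibitors blocking the TRPC4 calcium response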
# [17] = NIH-3T3 fibroblast cytotoxicity, dose response, cytotoxicity control, cell-based, fluorescence, Alamar Blue, secondary assay (AID 2327); format: functional;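 also: NIH-3T3 mouse fibroblasts cultured with fluconazole at 8 µg/mL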
# [18] = fluconazole-exposed Candida albicans growth modulators – fluorescence, retest, confirmation (AID 2467); format: functional, cell-based
# [19] = target: T4, Microphthalmia-associated transcription factor (Homo sapiens, UniProt O75030); experiment: reducers of TRPM1 reporter luminescence, concentration series – cell-based, SK-MEL-5, cherry-picked, set 3, MITF inhibitor project, dose response (AID 493073); format: functional;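 also: SK-MEL-5 melanoma cells with luciferase driven by the MITF target TRPM1 promoter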
# T4 sequence (O75030 whole entry): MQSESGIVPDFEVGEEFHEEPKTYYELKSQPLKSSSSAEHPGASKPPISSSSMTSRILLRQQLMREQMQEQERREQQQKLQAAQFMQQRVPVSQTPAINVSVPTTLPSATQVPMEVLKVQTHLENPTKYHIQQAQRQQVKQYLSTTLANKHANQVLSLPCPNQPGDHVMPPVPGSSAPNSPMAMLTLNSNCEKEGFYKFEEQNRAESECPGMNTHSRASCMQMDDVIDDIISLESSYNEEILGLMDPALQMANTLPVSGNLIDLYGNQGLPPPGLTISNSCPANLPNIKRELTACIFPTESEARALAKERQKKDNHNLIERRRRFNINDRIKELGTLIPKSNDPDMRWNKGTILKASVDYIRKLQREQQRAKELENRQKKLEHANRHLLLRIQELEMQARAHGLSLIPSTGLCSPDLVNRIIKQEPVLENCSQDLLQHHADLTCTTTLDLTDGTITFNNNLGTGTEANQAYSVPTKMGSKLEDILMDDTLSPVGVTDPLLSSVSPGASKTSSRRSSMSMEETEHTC
# [20] = target: T5, High affinity choline transporter 1 (Homo sapiens, UniProt Q9GZV3); experiment: human choline transporter blockers, potency – cell-based, 5-point CRC, membrane potential dye, dose response (AID 504840); format: functional
# T5 sequence (Q9GZV3 whole entry): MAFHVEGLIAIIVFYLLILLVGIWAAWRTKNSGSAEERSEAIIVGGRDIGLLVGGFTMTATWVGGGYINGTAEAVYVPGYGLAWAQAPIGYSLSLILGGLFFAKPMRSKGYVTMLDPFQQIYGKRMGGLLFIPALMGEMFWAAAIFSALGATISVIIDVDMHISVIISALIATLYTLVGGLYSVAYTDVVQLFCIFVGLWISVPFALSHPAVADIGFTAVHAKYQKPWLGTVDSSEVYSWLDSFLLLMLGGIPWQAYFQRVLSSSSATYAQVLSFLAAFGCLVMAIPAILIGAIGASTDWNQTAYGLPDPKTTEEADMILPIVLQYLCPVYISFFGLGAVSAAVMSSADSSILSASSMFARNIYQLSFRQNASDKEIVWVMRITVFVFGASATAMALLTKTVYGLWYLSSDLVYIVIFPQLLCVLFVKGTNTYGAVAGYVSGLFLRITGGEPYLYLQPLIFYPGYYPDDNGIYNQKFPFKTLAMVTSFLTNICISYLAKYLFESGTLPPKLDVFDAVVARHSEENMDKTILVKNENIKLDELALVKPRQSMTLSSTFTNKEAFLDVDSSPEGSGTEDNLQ
# [21] = target: T6, Heat shock factor protein 1 (Mus musculus, UniProt P38532); experiment: decrease of HSF1-responsive luciferase luminescence – cell-based, NIH3T3, dose retest, confirmation (AID 2382); format: functional;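 also: NIH3T3 fibroblasts with HSF1-driven luciferase reporter stressed by proteasome inhibitor MG132; luminescence from HSF1-driven luciferase expression after 8 hours of MG132 stress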
# T6 sequence (P38532 whole entry): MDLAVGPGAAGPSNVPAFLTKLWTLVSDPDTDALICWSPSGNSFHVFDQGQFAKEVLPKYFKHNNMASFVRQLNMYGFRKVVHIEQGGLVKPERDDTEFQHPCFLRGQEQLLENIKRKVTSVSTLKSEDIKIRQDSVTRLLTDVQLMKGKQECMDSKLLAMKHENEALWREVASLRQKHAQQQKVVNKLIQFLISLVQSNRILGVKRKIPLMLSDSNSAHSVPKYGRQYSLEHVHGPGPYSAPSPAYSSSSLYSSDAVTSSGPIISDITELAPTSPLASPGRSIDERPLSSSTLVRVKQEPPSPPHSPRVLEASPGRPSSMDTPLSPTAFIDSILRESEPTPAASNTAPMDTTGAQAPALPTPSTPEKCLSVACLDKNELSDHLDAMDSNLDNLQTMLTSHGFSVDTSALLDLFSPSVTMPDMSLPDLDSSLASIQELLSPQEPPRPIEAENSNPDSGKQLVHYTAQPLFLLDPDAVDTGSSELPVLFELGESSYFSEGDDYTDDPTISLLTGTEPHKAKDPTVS
# [22] = target: Nonstructural protein 1 (Influenza A virus, UniProt Q194T2); format: functional, Influenza A virus (A/California/07/2009(H1N1))
# Nonstructural protein 1, sequence (Q194T2 whole entry): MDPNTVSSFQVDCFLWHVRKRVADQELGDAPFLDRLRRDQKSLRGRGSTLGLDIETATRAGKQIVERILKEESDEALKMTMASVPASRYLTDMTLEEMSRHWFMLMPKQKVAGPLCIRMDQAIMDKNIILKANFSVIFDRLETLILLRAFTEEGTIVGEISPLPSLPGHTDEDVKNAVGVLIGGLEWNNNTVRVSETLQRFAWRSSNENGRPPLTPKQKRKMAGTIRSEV
# Cytochrome P450 3A4, sequence (P08684 whole entry): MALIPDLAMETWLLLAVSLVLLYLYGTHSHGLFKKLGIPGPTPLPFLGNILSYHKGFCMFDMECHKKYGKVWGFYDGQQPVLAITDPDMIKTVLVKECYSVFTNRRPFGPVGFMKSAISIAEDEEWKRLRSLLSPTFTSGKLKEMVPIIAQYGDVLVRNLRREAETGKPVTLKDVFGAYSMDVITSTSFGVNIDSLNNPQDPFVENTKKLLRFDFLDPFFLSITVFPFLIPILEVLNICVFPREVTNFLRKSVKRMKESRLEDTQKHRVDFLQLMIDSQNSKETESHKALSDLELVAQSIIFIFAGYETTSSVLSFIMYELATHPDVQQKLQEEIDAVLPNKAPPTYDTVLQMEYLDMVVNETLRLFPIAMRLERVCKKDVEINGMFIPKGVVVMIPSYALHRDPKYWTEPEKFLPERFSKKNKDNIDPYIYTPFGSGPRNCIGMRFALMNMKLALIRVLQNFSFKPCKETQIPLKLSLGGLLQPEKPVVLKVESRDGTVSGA
compound,measurement,setting,value
COc1ccc(CCN2C(=O)C=CC2=O)cc1OC,AC50,[1],3.1 µM (active)
COc1cccc(CN2CCNC(=O)C2CC(=O)N(C)CCc2ccccn2)c1OC (stereo not drawn),EC50,[2],6.68 µM (active)
Cc1ccc(C(=O)OCC(=O)c2ccc(CC(=O)N3CCOCC3)s2)c(C)c1,IC50,[3],4.73 µM (active)
O=C(c1cc(C(F)(F)F)cc(C(F)(F)F)c1)N1CCC2(CC1)CCN(c1ccncc1)CC2,AC50,[4],25.1 µM (inconclusive)
same,AC50,[5],inconclusive
O=C(CSc1nccc(O)n1)N1N=C2/C(=C/c3ccco3)CCCC2C1c1ccco1 (stereo not drawn),IC50,[3],13 µM (active)
CCCCCCCCC/C(=N\O)c1ccccn1,EC50,[6],1.97 µM (active)
same,AC50,[1],4.09 µM (active)
same,EC50,[7],> 30 µM (not active)
O=C(N/N=C1\CCCc2c1[nH]c1ccc(Cl)cc21)c1ccncc1,EC50,[8],10.3 µM (active)
same,IC50,[9],600 nM (active)
same,EC50,[10],11.1 µM (active)
same,EC50,[11],25.8 µM (active)
same,CC50,[12],9.43 µM (active)
CC(C)OC(=O)C(C)(C)Oc1ccc(C(=O)c2ccc(Cl)cc2)cc1 [FENOFIBRATE],AC50,[5],inconclusive
CN(C)CC1Oc2ccccc2OC1(O)c1ccccc1 (stereo not drawn),AC50,[1],2.52 µM (active)
O=C(O)/C=C/c1cccc(NC(=O)Nc2ccc([N+](=O)[O-])cc2)c1,AC50,[13],5.42 µM (active)
CC(=O)OCC(=O)[C@@]1(OC(C)=O)[C@H](C)C[C@H]2[C@@H]3C[C@H](F)C4=CC(=O)C=C[C@@]4(C)[C@]3(F)[C@H](O)C[C@@]21C,AC50,[4],12.6 µM (inconclusive)
same,AC50,[5],inconclusive
COc1ccc(S(=O)(=O)NCCc2csc(-c3cccnc3)n2)cc1,AC50,[14],144 µM (active)
CCc1nccc2c1[nH]c1ccccc12,EC50,[15],> 50 µM (active)
same,AC50,[13],5.67 µM (active)
same,EC50,[16],2.99 µM (active)
Nc1ncnc(Sc2ncccn2)c1[N+](=O)[O-],EC50,[17],7.47 µM (inconclusive)
same,EC50,[18],1 µM (active)
same,AC50,[19],11.7 µM (active)
CCc1ccccc1NC(=O)COc1ccc2oc(-c3ccc(OC)cc3)cc(=O)c2c1,IC50,[3],8.65 µM (active)
CC(/C=N/NC(=O)c1cc(-c2ccncc2)nc2ccccc12)=C\c1ccco1,IC50,[20],9.98 µM (active)
same,AC50,[19],2.4 µM (active)
O=C1C2C3C=CC(C3)C2C(=O)N1CN(Cc1ccccc1)CN1C(=O)C2C3C=CC(C3)C2C1=O (stereo not drawn),AC50,[1],17.4 µM (active)
C(=N\Nc1[nH]cnc2ncnc1-2)/c1cccs1,AC50,[13],5.83 µM (active)
N#Cc1ccccc1S(=O)(=O)N1CCN(C(=O)C2COc3ccccc3O2)CC1 (stereo not drawn),IC50,[3],3.54 µM (active)
CC(C)(C)OC(=O)N1Cc2ccccc2C[C@H]1C(=O)NCC(=O)Nc1ccc2c(c1)OCCO2,AC50,[14],1.4 µM (active)
same,EC50,[21],755 nM (active)
CCOC(=O)C1=C(C)N=C2c3ccccc3C(=O)C2C1c1ccc(C)cc1 (stereo not drawn),IC50,[22],> 100 µM (active)
same,AC50,[5],inconclusive
CSc1nc2cc(S(=O)(=O)N3CCCCC3)ccc2s1,AC50,[5],inconclusive
COc1ccc(CCN(C)C(=O)C2CCCN(C3CCN(Cc4ccccc4)CC3)C2)cc1OC (stereo not drawn),EC50,[2],1.19 µM (active)
